This note sets out measurements from patent US7553871B2, “Fatty acid antimicrobial” (GEA WestfaliaSurge, Inc., priority 1996, dated 2009).

Format in all cases: cell-based
Test [1] relates to Escherichia coli. The test can be described thus: In vitro suspension kill test, 1 minute contact at 37° C., survivors plated (Examples 1, 5). As to conditions: 1 minute at 37° C. The procedure: (§1) A set of in vitro tests was run on Staphylococcus aureus, Escherichia coli, Streptococcus agalactiae, Streptococcus uberis, Staphylococcus epidermidis, and Pseudomonas aeruginosa. A culture of the microorganism was first prepared according to the following procedure. Six to ten milliliters of trypticase soy broth was inoculated with the organism under consideration from a frozen or refrigerated stock. After incubation for five to seven hours at 37° C., the culture was transferred to a flask containing trypticase soy broth. The culture in the flask was then incubated on a gyratory shaker at approximately 1500 rpm overnight at 37° C. The next day, the culture in the flask is washed once in phosphate buffered saline solution (PBS) and stored at approximately 4° C. until needed. […]
(§2) The surviving bacteria suspended in quencher solution were then diluted with PBS and plated on appropriate media, for example, MacConkey for Escherichia coli, Staph 110 for Staphylococcus, and trypticase soy agar with 6% Sheep's blood for Streptococcus. The plates were incubated 24 to 48 hours at 37° C. and counted. The surviving organisms were expressed as colony forming units (CFU)/ml, and compared to the negative control as percent survival. […]

In another test the test system is Pseudomonas aeruginosa. The test can be described thus: In vitro suspension kill test, 1 minute contact at 37° C., survivors plated (Example 1). As to conditions: diluted with organic load (1:1 with whole milk). The procedure: (§3) A set of in vitro tests was run on Staphylococcus aureus, Escherichia coli, Streptococcus agalactiae, Streptococcus uberis, Staphylococcus epidermidis, and Pseudomonas aeruginosa. A culture of the microorganism was first prepared according to the following procedure. Six to ten milliliters of trypticase soy broth was inoculated with the organism under consideration from a frozen or refrigerated stock. After incubation for five to seven hours at 37° C., the culture was transferred to a flask containing trypticase soy broth. The culture in the flask was then incubated on a gyratory shaker at approximately 1500 rpm overnight at 37° C. The next day, the culture in the flask is washed once in phosphate buffered saline solution (PBS) and stored at approximately 4° C. until needed.
(§4) To test a specific antimicrobial's efficacy, ten milliliters of the culture was transferred to a 15 milliliter centrifuge tube and centrifuged at approximately 600 to 700 g for approximately five to ten minutes. After decanting the supernatant, ten milliliters of the antimicrobial (or PBS in the negative, or untreated, control) was added, and the centrifuge tube vortexed to suspend the bacteria. In those tests involving “organic loads”, a 1:1 dilution of the antimicrobial with whole milk was made before addition to the cultured microorganism to simulate conditions the product may have to experience in a real life environment, such as on a cow's teat.
(§5) The tube was then placed in a 37° C. water bath for 1 minute. The tube was centrifuged again at approximately 600 to 700 g for approximately five to ten minutes, and the supernatant decanted. The remaining precipitate was then suspended in a quencher solution containing letheen broth, 1% sodium thiosulfate and 0.2 mM CaCl2. The tube was centrifuged at approximately 600 to 700 g for approximately five to ten minutes, decanted and washed a second time in the quencher solution.
(§6) The surviving bacteria suspended in quencher solution were then diluted with PBS and plated on appropriate media, for example, MacConkey for Escherichia coli, Staph 110 for Staphylococcus, and trypticase soy agar with 6% Sheep's blood for Streptococcus. The plates were incubated 24 to 48 hours at 37° C. and counted. The surviving organisms were expressed as colony forming units (CFU)/ml, and compared to the negative control as percent survival.

A further test concerns Streptococcus agalactiae. The description is as above. As to conditions: diluted with organic load (1:1 with whole milk). As for the experimental part:
as §3, §4, §5, §6

Another test deals with Streptococcus uberis. The description is as above. Conditions: diluted with organic load (1:1 with whole milk). As for the experimental part: as §3, §4, §5, §6
Test [2] relates to Staphylococcus epidermidis. Described as above. Conditions: diluted with organic load (1:1 with whole milk). As for the experimental part: as §3, §4, §5, §6
Test [3] relates to Staphylococcus aureus. The test can be described thus: In vitro suspension kill test, 1 minute contact at 37° C., survivors plated (Examples 1, 4, 5). Conditions: 1 minute at 37° C. The procedure:
as §1, §2

Test [4] has as its system Escherichia coli. As to the kind of experiment: Excised dairy cow teat dip test (Example 2). Conditions: Escherichia coli on excised cow teats; dipped, drained ten minutes; log mean CFU/ml vs negative control. As for the experimental part: (§7) Another set of in vitro tests were run on Staphylococcus aureus, Escherichia coli, and Streptococcus uberis. A culture of the microorganism was first prepared according to the following procedure. Six to ten milliliters of trypticase soy broth was inoculated with the organism under consideration from a frozen or refrigerated stock. After incubation for five to seven hours at 37° C., the culture was transferred to a flask containing 200 milliliters of trypticase soy broth. The culture in the flask was then incubated on a gyratory shaker at approximately 1500 rpm overnight at 37° C. The next day, the culture in the flask is washed once in PBS or 0.1% protease peptone, and stored at approximately 4° C. until required.
(§8) The tests were run using dairy cow teats which had been obtained from a slaughter house. The teats were cut off at their connection to the udder, cleaned, and all hair was removed by using an open flame. The teats selected for the testing were screened for lesions, cuts, scars or other abnormalities. The teats were stored until needed in plastic bags in ice at a temperature below freezing. […]
(§9) Countable dilutions were plated on appropriate media, and incubated from 24 to 48 hours at 37° C. The colonies were counted macroscopically with the aid of fluorescent light. Non-typical colonies were not counted. […]

In test [5] the test system is Staphylococcus aureus. The test can be described thus: Excised dairy cow teat dip test (Example 2). Conditions: Staphylococcus aureus on excised cow teats; dipped, drained ten minutes; log mean CFU/ml vs negative control. The procedure:
as §7, §8, §9

The mark [6] stands for this setting: diluted with organic load (1:1 with whole milk).

In the case of `[O][Cl+][O-]` [chlorine dioxide], the “Percent Survival” value in the test with Escherichia coli [1] (setting [6]) is 0%; in the test with Escherichia coli [1] (undiluted antimicrobial), 0%; in the test with Pseudomonas aeruginosa, 0%; in the test on Streptococcus agalactiae, 0%; in the test with Streptococcus uberis it was 5.19%; in test [2] it was 5%. Further, the “Percent Survival” value in the test on Staphylococcus aureus [3] (setting [6]) is listed as 16.96%; in the test with Staphylococcus aureus [3] (undiluted antimicrobial, CFU/ml compared to negative control), 0%. The “Percent Log Reduction” value was 22% in the test on Escherichia coli [4] and 33.90% with Staphylococcus aureus [5].
